Assay [1] concerns the target T1, DNA topoisomerase 1 (Homo sapiens) (UniProt P11387).
T1 sequence (whole entry): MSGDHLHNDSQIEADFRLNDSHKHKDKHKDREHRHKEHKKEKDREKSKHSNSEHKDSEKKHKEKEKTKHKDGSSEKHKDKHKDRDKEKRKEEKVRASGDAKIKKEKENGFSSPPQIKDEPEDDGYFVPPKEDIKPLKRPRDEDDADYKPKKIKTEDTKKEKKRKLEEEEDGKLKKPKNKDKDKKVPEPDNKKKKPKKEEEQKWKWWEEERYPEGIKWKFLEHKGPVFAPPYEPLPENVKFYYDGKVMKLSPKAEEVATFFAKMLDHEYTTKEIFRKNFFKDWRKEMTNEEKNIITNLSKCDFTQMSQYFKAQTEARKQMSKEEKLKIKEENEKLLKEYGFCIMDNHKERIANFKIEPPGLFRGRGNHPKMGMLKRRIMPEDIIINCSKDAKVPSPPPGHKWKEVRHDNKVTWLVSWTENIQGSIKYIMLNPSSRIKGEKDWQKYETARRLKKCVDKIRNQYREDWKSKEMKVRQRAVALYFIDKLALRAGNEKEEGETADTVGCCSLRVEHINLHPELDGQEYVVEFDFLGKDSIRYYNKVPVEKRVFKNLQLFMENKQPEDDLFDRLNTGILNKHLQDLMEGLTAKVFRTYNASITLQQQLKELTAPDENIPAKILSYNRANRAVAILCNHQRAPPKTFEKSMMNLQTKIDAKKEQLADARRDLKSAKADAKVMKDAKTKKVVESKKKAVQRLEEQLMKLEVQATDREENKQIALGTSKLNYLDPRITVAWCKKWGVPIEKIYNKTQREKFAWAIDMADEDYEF
In words: Stability constant for DNA topoisomerase I complex in competitive DNA assay.

The test system of assay [2] is HeLa. In words: Concentration required to inhibit growth of human cervical HeLa carcinoma cell line. The format is functional, cell-based.
For assay [3], the system named is PC-3. In words: Concentration required to inhibit growth of human prostate PC-3 carcinoma cell line. It is filed as functional, cell-based.
For assay [4], the target named is T2, DNA topoisomerase 1 (Homo sapiens, UniProt P11387).
T2 sequence (P11387 whole entry): T1 sequence (whole entry)
In words: Effective concentration against DNA topoisomerase I.

The IC50 is the concentration that inhibits the measured activity by half. Lower therefore signals greater potency. As a reminder, the EC50 is the concentration needed to bring the measured effect to its halfway point. Lower therefore signals an effect from little substance. Compound `CC[C@@]1(O)C(=O)OCc2c1cc1n(c2=O)Cc2c-1nc1ccccc1c2CC(C)C` registered a K app in assay [1] of 0.11 min⁻¹. The half-inhibitory concentration (IC50) in assay [2] (Homo sapiens, HeLa) was 1310 nM; in assay [3] (Homo sapiens, PC-3), 170 nM. The same compound yielded an EC50 in assay [4] of 450 nM.

In the case of `CC[C@@]1(O)C(=O)OCc2c1cc1n(c2=O)Cc2c-1nc1cc3c(cc1c2-c1ccc(C)cc1)OCO3`, the K app in assay [1] was found to be 0.005 min⁻¹. Further, the IC50 in assay [2] (Homo sapiens, HeLa) stood at 2 nM; in assay [3] (Homo sapiens, PC-3), 8.3 nM. The compound also showed an EC50 in assay [4] of 1040 nM.

For `CC[C@@]1(O)C(=O)OCc2c1cc1n(c2=O)Cc2c-1nc1cc3c(cc1c2Cc1ccccc1)OCO3`, in assay [1], the K app worked out at 0.05 min⁻¹. Also, the IC50 was determined as 20.5 nM in assay [2] (Homo sapiens, HeLa) and 18.9 nM in assay [3] (Homo sapiens, PC-3). Also, a half-maximal effect in assay [4] (EC50) was put at 1950 nM.

In assay [1], `CCCCc1c2c(nc3ccccc13)-c1cc3c(c(=O)n1C2)COC(=O)[C@]3(O)CC` had a K app of 0.05 min⁻¹. For the same compound, the half-maximal inhibitory concentration (IC50) in assay [2] (Homo sapiens, HeLa) was 37.3 nM; in assay [3] (Homo sapiens, PC-3), 48.7 nM. For the same compound, the EC50 in assay [4] came out at 200 nM.

With `CCc1c2c(nc3ccc(O)cc13)-c1cc3c(c(=O)n1C2)COC(=O)[C@]3(O)CC` (stereo in doubt; form 2) [7-ETHYL-10-HYDROXYCAMPTOTHECIN], the IC50 in assay [2] (hela) came to 38.8 nM; in assay [3] (pc-3), 35.3 nM. The EC50 in assay [4] is 70 nM.

The compound `CC[C@@]1(O)C(=O)OCc2c1cc1n(c2=O)Cc2c-1nc1ccccc1c2C(C)(C)C` displayed a K app in assay [1] of 0.26 min⁻¹. Also, the IC50 came out at 204 nM in assay [2] (Homo sapiens, HeLa) and 308 nM in assay [3] (Homo sapiens, PC-3). In assay [4], this compound gave an EC50 of 240 nM.

In turn, `CCc1c2c(nc3ccc(O)cc13)-c1cc3c(c(=O)n1C2)COC(=O)[C@]3(O)CC` (stereo in doubt; form 2) registered a K app in assay [1] of 0.12 min⁻¹.

For `CC[C@@]1(O)C(=O)OCc2c1cc1n(c2=O)Cc2cc3ccccc3nc2-1` [CAMPTOTHECIN], the K app in assay [1] worked out at 0.14 min⁻¹. In addition, the IC50 is 117 nM in assay [2] (Homo sapiens, HeLa) and 1410 nM in assay [3] (Homo sapiens, PC-3).

Regarding `CC[C@@]1(O)C(=O)OCc2c1cc1n(c2=O)Cc2c-1nc1cc3c(cc1c2-c1ccc(Cl)cc1)OCO3`, the K app in assay [1] stood at 0.008 min⁻¹. Also, the IC50 in assay [2] (Homo sapiens, HeLa) was 26 nM; in assay [3] (Homo sapiens, PC-3), 8.2 nM. The compound further gave a concentration giving a half-maximal response (EC50) in assay [4] of 1160 nM.

For `CC[C@@]1(O)C(=O)OCc2c1cc1n(c2=O)Cc2c-1nc1cc3c(cc1c2C1CCCCC1)OCO3`, in assay [1], the K app is 0.03 min⁻¹. The half-inhibitory concentration (IC50) in assay [2] (Homo sapiens, HeLa) was found to be 9 nM; in assay [3] (Homo sapiens, PC-3), 11.5 nM. Moreover, a half-maximal response in assay [4] (EC50) required 1000 nM.

In assay [1], `CC[C@@]1(O)C(=O)OCc2c1cc1n(c2=O)Cc2c-1nc1cc3c(cc1c2-c1ccc(F)cc1)OCO3` came in with a K app of 0.004 min⁻¹. The IC50 was 16.2 nM in assay [2] (Homo sapiens, HeLa) and 6.3 nM in assay [3] (Homo sapiens, PC-3). In assay [4], this compound displayed an EC50 of 1390 nM.

In assay [1], `CC[C@@]1(O)C(=O)OCc2c1cc1n(c2=O)Cc2c-1nc1cc3c(cc1c2-c1ccc(C(F)(F)F)cc1)OCO3` came in with a K app of 0.007 min⁻¹. Further, the IC50 came to 6.9 nM in assay [2] (Homo sapiens, HeLa) and 13.4 nM in assay [3] (Homo sapiens, PC-3). This compound had a half-maximal effective concentration (EC50) in assay [4] of 160 nM.

The compound `CCc1c2c(nc3cc4c(cc13)OCO4)-c1cc3c(c(=O)n1C2)COC(=O)[C@]3(O)CC` gave a K app in assay [1] of 0.03 min⁻¹. Besides, the 50% inhibitory concentration (IC50) was found to be 13.9 nM in assay [2] (Homo sapiens, HeLa) and 10 nM in assay [3] (Homo sapiens, PC-3). This compound gave an EC50 in assay [4] of 270 nM.

Turning to `CC[C@@]1(O)C(=O)OCc2c1cc1n(c2=O)Cc2c-1nc1ccccc1c2Cc1ccccc1`, the K app in assay [1] came out at 0.24 min⁻¹. Besides, the IC50 in assay [2] (Homo sapiens, HeLa) is 80.9 nM; in assay [3] (Homo sapiens, PC-3) it was 51.2 nM. Moreover, in assay [4], the EC50 came out at 4560 nM.

Regarding `CC[C@@]1(O)C(=O)OCc2c1cc1n(c2=O)Cc2c-1nc1cc3c(cc1c2-c1ccccc1)OCO3`, the K app in assay [1] worked out at 0.005 min⁻¹. Further, the IC50 in assay [2] (Homo sapiens, HeLa) came out at 8.1 nM; in assay [3] (Homo sapiens, PC-3) it was 8.1 nM. The compound also showed a half-maximal effective concentration (EC50) in assay [4] of 150 nM.

`CCc1c2c(nc3ccc(O)cc13)-c1cc3c(c(=O)n1C2)COC(=O)[C@]3(O)CC` (stereo in doubt; form 1) [7-ETHYL-10-HYDROXYCAMPTOTHECIN]: the half-maximal inhibitory concentration (IC50) in assay [2] (Homo sapiens, HeLa) was determined as 25.7 nM; in assay [3] (Homo sapiens, PC-3), 35.6 nM. The compound further yielded a 50% effective concentration (EC50) in assay [4] of 320 nM.

Compound `CC[C@@]1(O)C(=O)OCc2c1cc1n(c2=O)Cc2c-1nc1cc3c(cc1c2C1CCCC1)OCO3` yielded a K app in assay [1] of 0.02 min⁻¹. Besides, the IC50 was 6.2 nM in assay [2] (Homo sapiens, HeLa) and 9 nM in assay [3] (Homo sapiens, PC-3). In assay [4], this compound displayed a concentration for a half-maximal effect (EC50) of 190 nM.

`CCc1c2c(nc3ccc(O)cc13)-c1cc3c(c(=O)n1C2)COC(=O)[C@]3(O)CC` (stereo in doubt; form 1) gave a K app in assay [1] of 0.06 min⁻¹.

`CC[C@@]1(O)C(=O)OCc2c1cc1n(c2=O)Cc2cc3cc4c(cc3nc2-1)OCO4` gave a K app in assay [1] of 0.05 min⁻¹. For the same compound, the IC50 in assay [2] (Homo sapiens, HeLa) was found to be 9.6 nM; in assay [3] (Homo sapiens, PC-3) it was 8.1 nM.

For the origin of these results see ChEMBL document CHEMBL1137998 (Bioorg Med Chem Lett, 2004).
